In ChEMBL document CHEMBL1138816, “Design and synthesis of novel N-acetylgalactosamine-terminated glycolipids for targeting of lipoproteins to the hepatic asialoglycoprotein receptor” (J Med Chem, 2004):

What was measured:
[1] = species on record: Mus musculus; experiment: Lipoprotein lowering effect in mice at 3-6 hrs was determined; assay type: functional
[2] = tested on: Mus musculus; experiment: Percentage liver uptake of [125I]LDL upon intravenous injection to C57BL/6J mice; assay type: functional
[3] = Uptake by the liver in mice at 60 min after injection; assay type: ADME, tissue-based; details: mouse, in vivo, 1 h
[4] = Binding affinity for mouse asialoglycoprotein receptor using [125I]-glycolipid3
[5] = Half-life in C57BL/6J mice upon intravenous administration of 3.33 mg/kg; assay type: ADME, organism-based; parameters: dose 3.33 mg/kg, route intravenous; details: mouse, in vivo
[6] = tested on: Mus musculus; experiment: Percentage liver uptake of [3H]HDL upon intravenous injection to C57BL/6J mice

## CCCCCCCC/C=C\CCCCCCCC(=O)N[C@H]1CC[C@@]2(C)C(CC[C@H]3[C@@H]4CC[C@H](C(C)CCC(=O)N[C@@H](Cc5ccc(O)cc5)C(=O)NCC(=O)NC(COCCC(=O)NCCOCCOCCOC5OC(CO)C(O)C(O)C5NC(C)=O)(COCCC(=O)NCCOCCOCCOC5OC(CO)C(O)C(O)C5NC(C)=O)COCCC(=O)NCCOCCOCCOC5OC(CO)C(O)C(O)C5NC(C)=O)[C@@]4(C)CC[C@@H]32)C1 (stereo partly specified)
[1]
  Peak effect: 20%
[2]
  Activity: 70%
[3]
  Uptake: 44%
[4]
  Ki: 2 nM
[5]
  half-life: ~30 min
[6]
  Activity: 78%
